One series has as its system MDA-MB-231. The series is described as follows: SRB colorimetric cytotoxicity assay, MDA-MB-231. The settings on record: MDA-MB-231, 72 hours treatment; for GI50: 50% cell growth inhibition; for TGI: total cell growth inhibition. It counts as cell-based, human. From the text:
(§1) The aim of this assay is to evaluate the in vitro cytostatic (ability to delay or arrest tumor cell growth) or cytotoxic (ability to kill tumor cells) activity of the samples being tested.
(§2) A colorimetric assay, using sulforhodamine B (SRB) reaction has been adapted to provide a quantitative measurement of cell growth and viability (following the technique described by Skehan et al. J. Natl. Cancer Inst. 1990, 82, 1107-1112).
(§3) This form of assay employs SBS-standard 96-well cell culture microplates (Faircloth et al. Methods in Cell Science, 1988, 11(4), 201-205; Mosmann et al, Journal of Immunological Methods, 1983, 65(1-2), 55-63). All the cell lines used in this study were obtained from the American Type Culture Collection (ATCC) and derive from different types of human cancer.
(§4) Cells were maintained in Dulbecco's Modified Eagle Medium (DMEM) supplemented with 10% Fetal Bovine Serum (FBS), 2 mM L-glutamine, 100 U/mL penicillin and 100 U/mL streptomycin at 37° C., 5% CO2 and 98% humidity. For the experiments, cells were harvested from subconfluent cultures using trypsinization and resuspended in fresh medium before counting and plating.
(§5) Cells were seeded in 96 well microtiter plates, at 5×10^3 cells per well in aliquots of 150 μL, and allowed to attach to the plate surface for 18 hours (overnight) in drug free medium. After that, one control (untreated) plate of each cell line was fixed (as described below) and used for time zero reference value. Culture plates were then treated with test compounds (50 μL aliquots of 4× stock solutions in complete culture medium plus 4% DMSO) using ten serial dilutions (concentrations ranging from 10 to 0.00262 μg/mL) and triplicate cultures (1% final concentration of DMSO). After 72 hours treatment, the antitumor effect was measured by using the SRB methodology: Briefly, cells were washed twice with PBS, fixed for 15 min in 1% glutaraldehyde solution at room temperature, rinsed twice in PBS, and stained in 0.4% SRB solution for 30 min at room temperature. Cells were then rinsed several times with 1% acetic acid solution and air-dried at room temperature. SRB was then extracted in 10 mM trizma base solution and the absorbance measured in an automated spectrophotometric plate reader at 490 nm. Effects on cell growth and survival were estimated by applying the NCI algorithm (Boyd M R and Paull K D. Drug Dev. Res. 1995, 34, 91-104).
(§6) Using the mean±SD of triplicate cultures, a dose-response curve was automatically generated using nonlinear regression analysis. Three reference parameters were calculated (NCI algorithm) by automatic interpolation: GI50=compound concentration that produces 50% cell growth inhibition, as compared to control cultures; TGI=total cell growth inhibition (cytostatic effect), as compared to control cultures, and LC50=compound concentration that produces 50% net cell killing (cytotoxic effect).

The test system of the next series is HT29. The experiment in a line: SRB colorimetric cytotoxicity assay, HT29. In kind it is cell-based, human. The settings on record: for GI50: 50% cell growth inhibition; for CC50: 50% net cell killing, read-out: LC50 (the source's name); for TGI: total cell growth inhibition.
Source text: as §1, §2, §3, §4, §5, §6

A further series has as its system A549. The experiment in a line: SRB colorimetric cytotoxicity assay, A549. It counts as cell-based, human. To be noted: A549, 72 hours treatment; for GI50: 50% cell growth inhibition; for CC50: 50% net cell killing, read-out: LC50 (the source's name); for TGI: total cell growth inhibition.
Source text: as §1, §2, §3, §4, §5, §6

For series [1], the system named is HIV-1RF. The settings on record: in vitro; cited from earlier work.
The subject of another series is HIV-1. The settings on record: cell-based XTT assay; read-out: IC50, cytoprotective activity against HIV-1 infection; cited from earlier work. (In general: Tetrazolium dyes change colour on reduction, which living cells bring about.)
Series [2] deals with HIV-1RF. To be noted: human T-cell line CEM-SS infected with HIV-1RF, 6 day incubation; read-out: EC50, inhibition of the cytopathic effect of HIV-1 infection; cited from earlier work.
Series [3] concerns panel of human cancer cell lines. To be noted: mean over a panel of human cancer cell lines; cited from earlier work.
The mark [4] stands for this setting: Homo sapiens, HT-29, HT29, 72 hours treatment.

We go through 7 molecules from patent US20110237520A1, “Anticancer Compounds” (priority 2008, published 2011).

Like-named read-outs stand apart in the source and are kept apart here. Numbered stars: 1 amine (or outer) side, 2 acyl side, 3 side chain; on linkers, the order of the positions; unused ones are H or OH. Bridge positions count the residues as written; N and C are the ends. Square brackets hold non-standard residues; d marks the D form. Peptide text beside a SMILES is read from it. * marks the point of attachment. ξ: configuration not given here. dNle(3R-OH,4R,5-Me2) = CC(C)[C@@H](C)[C@@H](O[*:3])[C@@H](N[*:1])C(=O)[*:2]; γ4hArg(2R,3R-(OH)2) = N=C(N)NCCC[C@H](N[*:1])[C@@H](O)[C@@H](O)C(=O)[*:2]; Heptanoyl(3R-OH,2R,4R,6-Me3) = CC(C)C[C@@H](C)[C@@H](O)[C@@H](C)C(=O)*; X5 = CO[C@H](c1ccc(O)cc1)C(N[*:1])C(=O)C[C@H](CC(N)=O)C(=O)[*:2]; Gln(3S,4R-Me2) = C[C@H]([C@H](N)C(=O)O)[C@@H](C)C(N)=O; X1 = NC(=O)CC[C@H](N[*:1])[C@@H](O)[C@@H](O)C(=O)[*:2]; X7 = O=C(O)CC[C@H](N[*:1])[C@@H](O)[C@@H](O)C(=O)[*:2]; ξThr(3R)(O-yl) = C[C@@H](O[*:3])C(N[*:1])C(=O)[*:2]; X6 = CC[C@@H](C)C[C@@H](C)[C@@H](O)[C@@H](C)C(=O)*; X4 = C[C@H](C(N[*:1])C(=O)[*:2])[C@@H](C)C(N)=O; Asn(3S-OEt) = CCO[C@H](C(N)=O)[C@H](N)C(=O)O; dAsp(3S-OH) = N[C@@H](C(=O)O)[C@H](O)C(=O)O; ξGln(3,4-Me2) = CC(C(N)=O)C(C)C(N)C(=O)O; X3 = CC(O)C(N[*:1])C(O)C(O)C(=O)[*:2]; ξAsn(3ξ-OMe) = COC(C(N)=O)C(N)C(=O)O; d(aThr) = C[C@@H](O)[C@@H](N)C(=O)O; X2 = CC(C)CC(C)CC(C)C(O)C(C)C(=O)*; NMeQ = CN[CH](CCC(N)=O)C(=O)O; ξNle(4ξ-Me) = CCC(C)CC(N)C(=O)O; ξThr(3R) = C[C@@H](O)C(N)C(=O)O; dOrn = NCCC[C@@H](N)C(=O)O; Pip = O=C(O)[CH]1CCCCN1; Orn = NCCC[CH](N)C(=O)O; ξL = CC(C)CC(N)C(=O)O

One may read the GI50 as the concentration at which growth is held to half of that of the control. Read a low GI50 as more potent growth inhibition. `CCO[C@H](C(N)=O)[C@@H]1NC(=O)[C@H](CCC(N)=O)N(C)C(=O)[C@H](CC(C)C)NC(=O)[C@@H](CCCCN)NC(=O)[C@@H]([C@@H](C)O)NC(=O)[C@H](NC(=O)[C@@H](NC(=O)[C@H](O)[C@H](O)[C@H](CCC(N)=O)NC(=O)[C@H](NC(=O)[C@H](C)[C@H](O)[C@H](C)CC(C)C)[C@H](O)C(=O)O)[C@@H](C)[C@@H](C)C(N)=O)[C@@H]([C@H](C)C(C)C)OC(=O)[C@@H]2CCCCN2C(=O)[C@@H](CC(=O)O)NC1=O` [Pipecolidepsin B] ({Heptanoyl(3R-OH,2R,4R,6-Me3)}-[dAsp(3S-OH)][X1][Gln(3S,4R-Me2)][dNle(3R-OH,4R,5-Me2)][d(aThr)][dK]L[NMeQ][Asn(3S-OEt)][dD][Pip]; ester 4-C): in the series on MDA-MB-231, it took 23.3 nM to inhibit growth by half (GI50), the LC50 (50% net cell killing) amounted to 209 nM and the TGI worked out at 6.58E−08 Molar. Further, in the series on HT29 (HT29, 72 hours treatment), the GI50 is 14.4 nM, the CC50 amounted to 65.8 nM and the TGI is listed as 2.69E−08 Molar. For the same molecule, in the series on A549, it took 35.3 nM to inhibit growth by half (GI50), the CC50 was found to be 353 nM and the TGI came to 1.08E−07 Molar.
As to papuamide B, the “EC50, inhibition of infection of human T-lymphoblastoid cells by HIV-1RF” value in the series on HIV-1RF [1] is on record as “approximately 4 ng/mL”.
The term IC50 denotes the concentration at which inhibition is half-maximal. As to `CC[C@@H](C)C[C@@H](C)[C@@H](O)[C@@H](C)C(=O)N[C@H](CCCN)C(=O)N[C@@H](CCC(=O)O)[C@@H](O)[C@@H](O)C(=O)N[C@H](C(=O)N[C@H]1C(=O)N[C@H](CO)C(=O)N[C@H](CCCN)C(=O)N[C@@H](CC(C)C)C(=O)N(C)[C@@H](CCC(N)=O)C(=O)N[C@@H]([C@@H](C)OC)C(=O)N[C@H](CC(=O)O)C(=O)N2CCCC[C@H]2C(=O)O[C@@H]1[C@H](C)C(C)C)[C@@H](C)[C@@H](C)C(N)=O` [homophymine A] (X6-[dOrn][X7][Gln(3S,4R-Me2)][dNle(3R-OH,4R,5-Me2)][dS][dOrn]L[NMeQ]T(Me)[dD][Pip]; ester 4-C), the concentration for half-maximal inhibition (IC50) in the series on HIV-1 was 75 nM.
For the molecule `CCC(C)CC1NC(=O)C(CCCN)NC(=O)C(C(C)O)NC(=O)C(NC(=O)C(NC(=O)C(O)C(O)C(NC(=O)CNC(=O)C(C)C(O)C(C)CC(C)CC(C)C)C(C)O)C(C)C(C)C(N)=O)C(C)OC(=O)C2CCCCN2C(=O)C(CC(N)=O)NC(=O)C(C(OC)C(N)=O)NC(=O)C(CCC(N)=O)N(C)C1=O` (centres unmarked) [Pipecolidepsin C] (X2-G[X3][ξGln(3,4-Me2)]TT[Orn][ξNle(4ξ-Me)][NMeQ][ξAsn(3ξ-OMe)]N[Pip]; ester 4-C; configuration not given here), the values for the GI50 with MDA-MB-231 (Homo sapiens), in the series with HT29 (setting [4]) and in the series with A549 (Homo sapiens) were 480 nM, 648 nM and 428 nM, respectively. This molecule also registered an LC50 (50% net cell killing) with MDA-MB-231 (Homo sapiens) of 907 nM. The TGI with MDA-MB-231 stood at 6.48E−07 Molar; with HT29 (HT29, 72 hours treatment), 8.43E−07 Molar; with A549, 5.25E−07 Molar. In addition, the values for the CC50 with HT29 (setting [4]) and with A549 (Homo sapiens) were 1040 nM and 648 nM, respectively.
For orientation: EC50 means the concentration at which the effect is half-maximal. `CO[C@H](c1ccc(O)cc1)C1NC(=O)[C@H](CCC(N)=O)N(C)C(=O)C(CC(C)C)NC(=O)[C@@H](CCCNC(=N)N)NC(=O)C([C@@H](C)O)NC(=O)C(NC(=O)C(NC(=O)[C@H](O)[C@H](O)[C@H](CCCNC(=N)N)NC(=O)[C@H](CC(N)=O)NC(=O)[C@H](C)[C@H](O)[C@H](C)CC(C)C)[C@@H](C)[C@@H](C)C(N)=O)[C@@H](C)OC(=O)[C@@H]2CCCCN2C(=O)[C@@H](CC(N)=O)CC1=O` (stereo partly drawn) [neamphamide A] ({Heptanoyl(3R-OH,2R,4R,6-Me3)}-N[γ4hArg(2R,3R-(OH)2)][X4][ξThr(3R)(O-yl)][ξThr(3R)][dR][ξL][NMeQ][X5][Pip]; ester 4-C): the EC50 with HIV-1RF [2] is 28 nM.
In the series with MDA-MB-231, `CCO[C@H](C(N)=O)[C@@H]1NC(=O)[C@H](CCC(N)=O)N(C)C(=O)[C@H](CC(C)C)NC(=O)[C@@H](CCCCN)NC(=O)[C@@H]([C@@H](C)O)NC(=O)[C@H](NC(=O)[C@@H](NC(=O)[C@H](O)[C@H](O)[C@H](CCC(N)=O)NC(=O)[C@@H](CC(=O)O)NC(=O)[C@H](C)[C@H](O)[C@H](C)CC(C)C)[C@@H](C)[C@@H](C)C(N)=O)[C@@H]([C@H](C)C(C)C)OC(=O)[C@@H]2CCCCN2C(=O)[C@@H](CC(=O)O)NC1=O` [Pipecolidepsin A] ({Heptanoyl(3R-OH,2R,4R,6-Me3)}-[dD][X1][Gln(3S,4R-Me2)][dNle(3R-OH,4R,5-Me2)][d(aThr)][dK]L[NMeQ][Asn(3S-OEt)][dD][Pip]; ester 4-C) came in with a GI50 of 725 nM, an LC50 (50% net cell killing) of 1750 nM and a TGI of 1.15E−06 Molar. Also, in the series with HT29 (HT29, 72 hours treatment), the GI50 was 1150 nM, the CC50 came to 1570 nM and the TGI stood at 1.33E−06 Molar. Also, in the series with A549, the GI50 worked out at 604 nM, the CC50 stood at 1390 nM and the TGI came out at 9.06E−07 Molar.
Consider papuamide A, for which the “mean IC50, cytotoxicity” value in series [3] is 0.075 µg/mL. Also, the “EC50, inhibition of infection of human T-lymphoblastoid cells by HIV-1RF” value with HIV-1RF [1] is “approximately 4 ng/mL”.
